Data: article PMC2694832, “Pharmacokinetics, tissue distribution and mass balance of radiolabeled dihydroartemisinin in male rats” (Malaria Journal, 2009)

Assays:
[1] = Pharmacokinetic study of [^14C] DHA and unchanged DHA, single i.v. dose; assay type: in vivo, rats; conditions: for fourth peak concentration of radioactivity: 6 hours; for first peak concentration of radioactivity: at one minute
Method: Traditional PK studies involve intermittent blood sampling and subsequent determination of drug concentrations in whole blood and plasma. The Culex automated blood sampler provides a way for blood withdrawal at preprogrammed intervals, which is more accurate and less labor intensive. Six rats in the PK group were implanted with a jugular vein catheter under an isofluorane anesthaesia. After the surgery, rats were allowed to recover for 96 hours with free access to food and water. The rats were dosed single i.v. at 3 mg/ml/kg with [^14C] DHA (20 μCi/kg), which was prepared as a 25% cremophore/0.9% saline solution, through the tail vein. […] PK evaluation of [^14C] DHA in plasma and whole blood, as well as unchanged DHA in plasma was conducted in individual rats.
Total radioactivity in the collected tissue samples were quantified in duplicate. Weighed tissue aliquots (~0.2 g) were digested overnight in 2 ml of Solvable® tissue solubilizer (Perkin-Elmer Life and Analytical Sciences, Boston, MA) at 50°C. Coloured samples were decolourized by adding a maximum of 0.2 ml of 30% H2O2 for 30–60 minutes. Scintillation cocktail (Hyonic Fluor; Perkin-Elmer Boston. Massachusetts, USA) was then added and radioactivity determined in a Perkin-Elmer Tri-Carb 3100 TR scintillation spectrophotometer (Packard Instrument Co., Downers Grove, Illinois, USA). Faeces and intestinal contents were thoroughly homogenized before taking aliquots. Plasma was also analysed using the HPLC-ECD system to measure the concentration of unchanged DHA, as described by Li et al.
The analysis of cold DHA in plasma was performed according to a previously described HPLC method with the following modifications: for simultaneous determination of artemisinin and DHA (artemisinin as an internal standard), the Agilent Eclipse XDB-C18 column 5 μm (4.6 × 150 mm) was used with an isocratic mobile phase consisting of 40% acetonitrile: 60% ESA Acid Metabolite A (70–4835) in the reductive mode (-400 mV) for the quantification of DHA. Validation and reproducibility were evaluated and a lower limit of quantitation (LLQ) of 2.31 ng/ml for DHA was determined. The inter- and intra-day coefficient of variation for accuracy and precision were all within ± 10%.
For pharmacokinetics, the concentration-time data of [^14C] DHA in plasma and whole blood collected during the 192 hour treatment period was fitted to a three-compartment open model using a nonlinear, extended least-square fitting procedure (WinNonlin 5.2, Pharsight Corporation, Cary, NC) using weighted (1/concentration) nonlinear regression. The area under the curve (AUC) was determined by the linear trapezoidal rule with extrapolation to infinity based on the concentration of the last time point divided by the terminal rate constant. Extrapolations to time zero were done using zero concentration for intravenous dosing and using C0 values determined from the three-compartment model equation at time zero by i.v. route. Mean clearance rate (CL) was determined by dividing the dose by the AUCinf for i.v. injection. Mean residence time (MRT) was determined by dividing the area under the first moment curve (AUMC) by the AUC. The volume of distribution at steady state (Vss) was calculated as the product of CL and MRT. The concentration-time data of unchanged DHA was fitted to a two-compartment open model. Statistical analysis was conducted with Microsoft Excel using a Student's t-test for dependent samples to compare means of paired and unpaired samples between two groups.

[2] = Metabolic profile of [^14C] DHA (free, glucuronide and other conjugation fractions); assay type: in vivo, rats; conditions: for drug conjugation of the dose: rats i.v. 3 mg/20 μCi/kg
Method: About 2 ml of plasma and urine, and 1 – 2 g of faeces were used. Conjugates were hydrolyzed by glucuronidase (1000 FU/ml, Sigma-Aldrich, St. Louis, MO) at pH 4.6, 38°C for 24 hours. Active enzyme was checked by phenophthaleinglucuronide at the end of incubation. Urine and faecal samples were incubated for 48 hours and fresh enzyme was added after 24 hours. Total radioactivity in free, conjugated, and the remaining aqueous fractions were measured with liquid scintillation counters. Protein precipitates were dissolved in Solvable^R (200 mg in 1 ml) and counted for radioactivity after addition of scintillation cocktail.

[3] = blood radioactivity, three-compartment, rats single i.v. 3 mg/20 μCi/kg
[4] = blood radioactivity, rats single i.v. 3 mg/20 μCi/kg
[5] = plasma radioactivity, three-compartment, rats single i.v. 3 mg/20 μCi/kg
[6] = plasma radioactivity, rats single i.v. 3 mg/20 μCi/kg
[7] = plasma radioactivity, rats single i.v. 3 mg/20 μCi/kg, listed as 14C-Dihydroartemisinin
[8] = plasma, rats i.v. 3 mg/20 μCi/kg

- AUCinf. [1, 3]: 52690 ± 4971 ng·h/mL
- CL [1, 3]: 0.7263 ± 0.5117 mL/min/kg
- Cmax [1, 3]: 3105 ± 430 ng/mL
- MRT [1, 3]: 148.57 ± 90.24 h
- Vss [1, 3]: 10.792 ± 3.771 L/kg
- t1/2 – alpha [1, 3]: 0.18 ± 0.02 h
- t1/2 – beta [1, 3]: 19.68 ± 3.88 h
- t1/2 – gamma (terminal) [1, 3]: 122.13 ± 8.73 h
- Cmax at first peak [1, 4]: 3105 ± 430 ng/mL
- Cmax at fourth peak [1, 4]: 833 ± 99 ng/mL
- Cmax at second peak [1, 4]: 1557 ± 955 ng/mL
- Cmax at third peak [1, 4]: 978 ± 164 ng/mL
- Tmax [1, 4]: 1.2 min
- time of first peak [1, 4]: 0.02 h
- time of fourth peak [1, 4]: 6 h
- time of second peak [1, 4]: 0.94 h
- time of third peak [1, 4]: 2.00 h
- time of fourth peak ([1]; blood radioactivity, rats single i.v. 3 mg/20 μCi/kg, listed as 14C-Dihydroartemisinin): 6.00 h
- fourth peak concentration of radioactivity ([1]; blood, rats i.v. 3 mg/20 μCi/kg): 833 ng equivalents/ml
- third peak concentration of radioactivity ([1]; blood, at two hours, rats i.v. 3 mg/20 μCi/kg): 978 ng equivalents/ml
- AUCinf. [1, 5]: 21014 ± 2718 ng·h/mL
- CL [1, 5]: 2.4105 ± 0.3028 mL/min/kg
- MRT [1, 5]: 57.00 ± 2.84 h
- Vss [1, 5]: 8.216 ± 0.828 L/kg
- t1/2 – alpha [1, 5]: 0.21 ± 0.05 h
- t1/2 – gamma (terminal) [1, 5]: 75.57 ± 7.34 h
- time of second peak ([1]; plasma radioactivity, rats i.v. 3 mg/20 μCi/kg): 0.183 h
- Cmax at fourth peak [1, 6]: 584 ± 65.5 ng/mL
- Cmax at second peak [1, 6]: 2373 ± 195 ng/mL
- Cmax at third peak [1, 6]: 863 ± 537 ng/mL
- Tmax [1, 6]: 1.2 min
- time of first peak [1, 6]: 0.02 h
- time of fourth peak [1, 6]: 6 h
- time of second peak [1, 6]: 0.19 h
- time of third peak [1, 6]: 1.7 h
- time of fourth peak [1, 7]: 6.00 h
- time of third peak [1, 7]: 1.70 h
- fourth peak concentration of radioactivity [1, 8]: 584 ng equivalents/ml
- first peak concentration of radioactivity [1, 8]: 3,446 ng equivalents/g
- second peak concentration of radioactivity [1, 8]: 2,373 ng equivalents/ml
- third peak concentration of radioactivity [1, 8]: 863 ng equivalents/ml
- total radioactivity in the plasma fraction relative to blood total ([1]; rats i.v.): less than 25%
- duration of total radioactivity (long-lasting metabolites) ([1]; rats, plasma, urine and faeces, single i.v. 3 mg/20 μCi/kg): > 192 h
- time of second peak ([1]; whole blood radioactivity, rats i.v. 3 mg/20 μCi/kg): 0.933 h
- first peak concentration of radioactivity ([1]; whole blood, rats i.v. 3 mg/20 μCi/kg): 3,105 ng equivalents/g
- ratio of conjugation to free ([2]; plasma, 10 minutes): 1.86
- ratio of conjugation to free ([2]; plasma, 1 hour after dosing): 4.48
- ratio of conjugation to free ([2]; plasma, 192 hours): 15.1
- ratio of conjugation to free ([2]; plasma, within five minutes after dosing): 1.07
- drug conjugation of the dose ([2]; plasma): up to 89%
- drug conjugation of the dose ([2]; urine): ≤ 95%
Compound: C[C@@H]1CC[C@H]2[C@@H]([14CH3])C(O)O[C@@H]3O[C@@]4(C)CC[C@@H]1[C@]32OO4 (stereo partly drawn) [[^14C] DHA, [16-^14C] DHA]
